Assay results published in ChEMBL document CHEMBL3885861, “Open TG-GATES”.

Species: Rattus norvegicus
Assay: Open TG-GATES - Regimen: Daily Repeat
Assay type: toxicity, organism-based, Sprague-Dawley
Set-up: regimen Daily Repeat, gender Male, age 6 weeks
Details: in vivo, po, 0 mg/kg, route gavage, dose level Control; for APTT / Bas / Eos / Fbg / Hb / Ht / Lym / MCH / MCHC / MCV / Mono / Neu / PT / Plat / RBC / Ret / WBC: tissue Blood; for KIDNEY_L / KIDNEY_R / KIDNEY_TOTAL: tissue Kidney; for LIVER: tissue Liver; for A/G / ALP / ALT / AST / BUN / CRE / Ca / Cl / DBIL / GLC / IP / K / LDH / Na / PL / RALB / TBIL / TC / TG / TP / gamma-GTP: tissue Plasma

NC(=O)N/N=C/c1ccc([N+](=O)[O-])o1 [NITROFURAZONE]
TERMINAL_BW (72 h, time 3 day): 218.5 g | APTT (72 h, time 3 day): 14.6 s | Bas (72 h, time 3 day): 0% | Eos (72 h, time 3 day): 0.6% | Fbg (72 h, time 3 day): 279.4 mg/dL | Hb (72 h, time 3 day): 12.9 g/dL | Ht (72 h, time 3 day): 39.6% | Lym (72 h, time 3 day): 81% | MCH (72 h, time 3 day): 21 pg | MCHC (72 h, time 3 day): 32.6% | MCV (72 h, time 3 day): 64.4 fL | Mono (72 h, time 3 day): 2.6% | Neu (72 h, time 3 day): 15% | PT (72 h, time 3 day): 14.5 s | Plat (72 h, time 3 day): 111.2 x10_4/uL | RBC (72 h, time 3 day): 614.6 x10_4/ul | Ret (72 h, time 3 day): 8.9% | WBC (72 h, time 3 day): 76.9 x10_2/uL | KIDNEY_L (72 h, time 3 day): 0.9 g | KIDNEY_R (72 h, time 3 day): 0.9 g | KIDNEY_TOTAL (72 h, time 3 day): 1.7 g | LIVER (72 h, time 3 day): 9.8 g | A/G (72 h, time 3 day): 0.9 | ALP (72 h, time 3 day): 2147 IU/L | ALT (72 h, time 3 day): 51.2 IU/L | AST (72 h, time 3 day): 78.2 IU/L | BUN (72 h, time 3 day): 16 mg/dL | CRE (72 h, time 3 day): 0.2 mg/dL | Ca (72 h, time 3 day): 11.4 mg/dL | Cl (72 h, time 3 day): 106.2 meq/L | DBIL (72 h, time 3 day): 0.016 mg/dL | GLC (72 h, time 3 day): 178.2 mg/dL | IP (72 h, time 3 day): 7.9 mg/dL | K (72 h, time 3 day): 4.4 meq/L | LDH (72 h, time 3 day): 79 IU/L | Na (72 h, time 3 day): 141.6 meq/L | PL (72 h, time 3 day): 161.2 mg/dL | RALB (72 h, time 3 day): 2.6 g/dL | TBIL (72 h, time 3 day): 0.046 mg/dL | TC (72 h, time 3 day): 92.4 mg/dL | TG (72 h, time 3 day): 100.8 mg/dL | TP (72 h, time 3 day): 5.6 g/dL | gamma-GTP (72 h, time 3 day): 1 IU/L | TERMINAL_BW ([…], time 7 day): 259.3 g | TERMINAL_BW ([…], time 14 day): 324.7 g | TERMINAL_BW ([…], time 28 day): 406 g | APTT ([…], time 7 day): 16.9 s | Bas ([…], time 7 day): 0.2% | Eos ([…], time 7 day): 1% | Fbg ([…], time 7 day): 268 mg/dL | Hb ([…], time 7 day): 13.4 g/dL | Ht ([…], time 7 day): 39.9% | Lym ([…], time 7 day): 75% | MCH ([…], time 7 day): 21.1 pg | MCHC ([…], time 7 day): 33.5% | MCV ([…], time 7 day): 62.8 fL | Mono ([…], time 7 day): 3.2% | Neu ([…], time 7 day): 20.2% | PT ([…], time 7 day): 14.4 s | Plat ([…], time 7 day): 112.6 x10_4/uL | RBC ([…], time 7 day): 636.4 x10_4/ul | Ret ([…], time 7 day): 7% | WBC ([…], time 7 day): 96.1 x10_2/uL | APTT ([…], time 14 day): 14.3 s | Bas ([…], time 14 day): 0.2% | Eos ([…], time 14 day): 0.8% | Fbg ([…], time 14 day): 303 mg/dL | Hb ([…], time 14 day): 13.6 g/dL | Ht ([…], time 14 day): 41.4% | Lym ([…], time 14 day): 77.8% | MCH ([…], time 14 day): 20.7 pg | MCHC ([…], time 14 day): 32.8% | MCV ([…], time 14 day): 63.2 fL | Mono ([…], time 14 day): 2% | Neu ([…], time 14 day): 18.2% | PT ([…], time 14 day): 14.4 s | Plat ([…], time 14 day): 121.6 x10_4/uL | RBC ([…], time 14 day): 657.2 x10_4/ul | Ret ([…], time 14 day): 5.7% | WBC ([…], time 14 day): 91.3 x10_2/uL | APTT ([…], time 28 day): 16.2 s | Bas ([…], time 28 day): 0% | Eos ([…], time 28 day): 1.2% | Fbg ([…], time 28 day): 275.6 mg/dL | Hb ([…], time 28 day): 15 g/dL | Ht ([…], time 28 day): 44.5% | Lym ([…], time 28 day): 77% | MCH ([…], time 28 day): 19.5 pg | MCHC ([…], time 28 day): 33.7% | MCV ([…], time 28 day): 58 fL | Mono ([…], time 28 day): 1.8% | Neu ([…], time 28 day): 19.4% | PT ([…], time 28 day): 14.9 s | Plat ([…], time 28 day): 105 x10_4/uL | RBC ([…], time 28 day): 767.2 x10_4/ul | Ret ([…], time 28 day): 2.6% | WBC ([…], time 28 day): 74.7 x10_2/uL | KIDNEY_L ([…], time 7 day): 1.1 g | KIDNEY_R ([…], time 7 day): 1.1 g | KIDNEY_TOTAL ([…], time 7 day): 2.1 g | KIDNEY_L ([…], time 14 day): 1.3 g | KIDNEY_R ([…], time 14 day): 1.2 g | KIDNEY_TOTAL ([…], time 14 day): 2.5 g | KIDNEY_L ([…], time 28 day): 1.5 g | KIDNEY_R ([…], time 28 day): 1.3 g | KIDNEY_TOTAL ([…], time 28 day): 2.8 g | LIVER ([…], time 7 day): 12.2 g | LIVER ([…], time 14 day): 15.1 g | LIVER ([…], time 28 day): 16.8 g | A/G ([…], time 7 day): 0.8 | ALP ([…], time 7 day): 1832.4 IU/L | ALT ([…], time 7 day): 45.8 IU/L | AST ([…], time 7 day): 69 IU/L | BUN ([…], time 7 day): 15.6 mg/dL | CRE ([…], time 7 day): 0.2 mg/dL | Ca ([…], time 7 day): 11.2 mg/dL | Cl ([…], time 7 day): 104 meq/L | DBIL ([…], time 7 day): 0.022 mg/dL | GLC ([…], time 7 day): 196.2 mg/dL | IP ([…], time 7 day): 7.5 mg/dL | K ([…], time 7 day): 3.6 meq/L | LDH ([…], time 7 day): 69 IU/L | Na ([…], time 7 day): 141.6 meq/L | PL ([…], time 7 day): 146.4 mg/dL | RALB ([…], time 7 day): 2.6 g/dL | TBIL ([…], time 7 day): 0.054 mg/dL | TC ([…], time 7 day): 76.2 mg/dL | TG ([…], time 7 day): 93.2 mg/dL | TP ([…], time 7 day): 5.6 g/dL | gamma-GTP ([…], time 7 day): 1 IU/L | A/G ([…], time 14 day): 0.8 | ALP ([…], time 14 day): 1410 IU/L | ALT ([…], time 14 day): 43.4 IU/L | AST ([…], time 14 day): 65.6 IU/L | BUN ([…], time 14 day): 17.4 mg/dL | CRE ([…], time 14 day): 0.2 mg/dL | Ca ([…], time 14 day): 11 mg/dL | Cl ([…], time 14 day): 105.4 meq/L | DBIL ([…], time 14 day): 0.012 mg/dL | GLC ([…], time 14 day): 195.4 mg/dL | IP ([…], time 14 day): 7.5 mg/dL | K ([…], time 14 day): 4 meq/L | LDH ([…], time 14 day): 70 IU/L | Na ([…], time 14 day): 142.8 meq/L | PL ([…], time 14 day): 159.8 mg/dL | RALB ([…], time 14 day): 2.6 g/dL | TBIL ([…], time 14 day): 0.046 mg/dL | TC ([…], time 14 day): 79.2 mg/dL | TG ([…], time 14 day): 119 mg/dL | TP ([…], time 14 day): 5.8 g/dL | gamma-GTP ([…], time 14 day): 1.2 IU/L | A/G ([…], time 28 day): 0.8 | ALP ([…], time 28 day): 1109.8 IU/L | ALT ([…], time 28 day): 38 IU/L | AST ([…], time 28 day): 62.4 IU/L | BUN ([…], time 28 day): 16.6 mg/dL | CRE ([…], time 28 day): 0.2 mg/dL | Ca ([…], time 28 day): 10.9 mg/dL | Cl ([…], time 28 day): 104 meq/L | DBIL ([…], time 28 day): 0.014 mg/dL | GLC ([…], time 28 day): 192 mg/dL | IP ([…], time 28 day): 6.9 mg/dL | K ([…], time 28 day): 3.4 meq/L | LDH ([…], time 28 day): 61.2 IU/L | Na ([…], time 28 day): 145.2 meq/L | PL ([…], time 28 day): 139.6 mg/dL | RALB ([…], time 28 day): 2.7 g/dL | TBIL ([…], time 28 day): 0.068 mg/dL | TC ([…], time 28 day): 60.6 mg/dL | TG ([…], time 28 day): 145.4 mg/dL | TP ([…], time 28 day): 6.1 g/dL | gamma-GTP ([…], time 28 day): 0.8 IU/L
